Experimental data from ChEMBL document CHEMBL1137512, “Synthesis and evaluation of chloromethyl sulfoxides as a new class of selective irreversible cysteine protease inhibitors” (Bioorg Med Chem, 2007).
The source made the active and inactive calls. The calls are words filed in the database; no cut-off is given here.

What was measured:
[1] = Inhibition of papain by colorimetric assay
[2] = Binding affinity to papain at 10 uM by fluorescent binding test

SMILES	Ki [1] [µM]	Activity [2] [%]	Activity [1]
CC(C)C[C@@H](C[S+]([O-])CCl)NC(=O)OC(C)(C)C (stereo partly drawn)	485		
CC(C)(C)OC(=O)N[C@@H](Cc1ccccc1)C(=O)NCC[S+]([O-])CCl (stereo partly drawn)	3670		
CN(C)c1cccc2c(S(=O)(=O)NCC(=O)NCC[S+]([O-])CCl)cccc12 (stereo not drawn)	471	40	
CC(C)[C@@H](C[S+]([O-])CCl)NC(=O)OC(C)(C)C (stereo partly drawn)	543		
C[C@@H](C[S+]([O-])CCl)NC(=O)OC(C)(C)C (stereo partly drawn)	1430		
CC(C)(C)OC(=O)N[C@@H](Cc1ccccc1)C[S+]([O-])CCl (stereo partly drawn)	142		
CC(C)(C)OC(=O)NCC[S+]([O-])CCl (stereo not drawn)			inactive
